Values joined by “and” are separate entries in the source; they are usually repeats but may differ in a detail not shown here. Equal entries are not always repeated.
Experiments:
[1] = Cannabinoid profile of crystalline product samples by HPLC-DAD-MS analysis (cannabinoid preservation); conditions: for Cannabinoid quantity, Avg R103A-C: average of Samples R103A-C; for Cannabinoid quantity, Avg R103A-C / Cannabinoid quantity in Control R104 / Cannabinoid quantity in Sample R103A / Cannabinoid quantity in Sample R103B / Cannabinoid quantity in Sample S103: without rapid cooling process; for Cannabinoid quantity in Control R104: control crystalline product; for Cannabinoid quantity in Sample R104A / Cannabinoid quantity in (Retest) Sample R104A / Cannabinoid quantity in Sample R104B / Cannabinoid quantity in Sample R103A / Cannabinoid quantity in Sample R103B / Cannabinoid quantity in Sample S201 / Cannabinoid quantity in Sample S103: crystalline product; for Cannabinoid quantity in Sample R104A / Cannabinoid quantity in (Retest) Sample R104A / Cannabinoid quantity in Sample R104B / Cannabinoid quantity in Sample S201: with rapid cooling process; for Cannabinoid quantity in Sample R104A: original test; for Cannabinoid quantity in Sample R104B: stored for three months before being tested; for Cannabinoid quantity in Sample R103A / Cannabinoid quantity in Sample R103B: from RB Fat; for Cannabinoid quantity in Sample S201 / Cannabinoid quantity in Sample S103 / Change in cannabinoid quantity, Sample S201 compared to Sample S103: sodium chloride; for Cannabinoid quantity in Sample S103: from RB-Fat; for Change in cannabinoid quantity, Sample S201 compared to Sample S103: with vs without rapid cooling process
[2] = Cannabinoid profile of the cannabis extract by LCMS analysis; conditions: cannabis extract labeled RB Fat

SMILES: CCCCCc1cc(O)c2c(c1)OC(C)(C)[C@@H]1CC=C(C)C[C@@H]21 [Δ8-THC, Δ-8-tetrahydrocannabinol]
- Cannabinoid quantity, Avg R103A-C ([1]; sucrose): 0.06 mg/g
- Cannabinoid quantity in Control R104 ([1]; sucrose): 1.7 mg/g
- Cannabinoid quantity in Sample R104A ([1]; sucrose): no detectable quantities
- Cannabinoid quantity in (Retest) Sample R104A ([1]; sucrose): 1.36 mg/g
- Cannabinoid quantity in Sample R104B ([1]; sucrose): 0.14 mg/g

SMILES: C=C(C)[C@@H]1CCC(C)=C[C@H]1c1c(O)cc(CCCCC)c(C(=O)O)c1O [CBD-A, Cannabidiolic acid]
- Cannabinoid quantity in Sample RB Fat [2]: 0.12 mg/mL
- Cannabinoid quantity, Avg R103A-C ([1]; sucrose): No detectable quantities
- Cannabinoid quantity in Control R104 ([1]; sucrose): undetectable quantities
- Cannabinoid quantity in Sample R104A ([1]; sucrose): negligible or no detectable quantities

SMILES: CCCCCc1cc2c(c(O)c1C(=O)O)C1C3C(CCC3(C)O2)C1(C)C (centres unmarked) [CBL-A, cannabicyclol acid]
- Cannabinoid quantity in Sample RB Fat [2]: 0.38 mg/mL
- Cannabinoid quantity, Avg R103A-C ([1]; sucrose): 0.39 mg/g
- Cannabinoid quantity in Sample R103A ([1]; sucrose): 0.46 mg/g
- Cannabinoid quantity in Sample R103B ([1]; sucrose): 0.35 mg/g

SMILES: CCCc1cc(O)c2c(c1)OC(C)(C)[C@@H]1CCC(C)=C[C@@H]21 [THCV, Tetrahydrocannabivarin]
- Cannabinoid quantity, Avg R103A-C ([1]; sucrose): 0.16 mg/g
- Cannabinoid quantity in Control R104 ([1]; sucrose): 0.34 mg/g
- Cannabinoid quantity in Sample S201 [1]: 0.41 mg/g
- Cannabinoid quantity in Sample S103 [1]: 0.51 mg/g
- Cannabinoid quantity in Sample R104A ([1]; sucrose): 0.54 mg/g
- Cannabinoid quantity in (Retest) Sample R104A ([1]; sucrose): 0.52 mg/g
- Cannabinoid quantity in Sample R104B ([1]; sucrose): 0.55 mg/g
- Cannabinoid quantity in Sample R103A ([1]; sucrose): 0.14 mg/g
- Cannabinoid quantity in Sample R103B ([1]; sucrose): 0.2 mg/g
- Change in cannabinoid quantity, Sample S201 compared to Sample S103 [1]: marginal differences

SMILES: CCCCCc1cc(O)c2c(c1)OC(C)(CCC=C(C)C)C=C2 (centres unmarked) [CBC, Cannabichromene]
- Cannabinoid quantity in Sample RB Fat [2]: 0.63 mg/mL
- Cannabinoid quantity, Avg R103A-C ([1]; sucrose): 0.45 mg/g
- Cannabinoid quantity in Control R104 ([1]; sucrose): 0.8 mg/g
- Cannabinoid quantity in Sample S201 [1]: 0.84 mg/g
- Cannabinoid quantity in Sample S103 [1]: 0.94 mg/g
- Cannabinoid quantity in Sample R104A ([1]; sucrose): 1.18 mg/g
- Cannabinoid quantity in (Retest) Sample R104A ([1]; sucrose): 1.15 mg/g
- Cannabinoid quantity in Sample R104B ([1]; sucrose): 1.22 mg/g
- Cannabinoid quantity in Sample R103A ([1]; sucrose): 0.47 mg/g
- Cannabinoid quantity in Sample R103B ([1]; sucrose): 0.45 mg/g
- Change in cannabinoid quantity, Sample S201 compared to Sample S103 [1]: marginal differences

SMILES: CCCc1cc2c(c(O)c1C(=O)O)C1C=C(C)CCC1C(C)(C)O2 (centres unmarked) [THCV-A]
- Cannabinoid quantity in Sample RB Fat [2]: 0.26 mg/mL
- Cannabinoid quantity, Avg R103A-C ([1]; sucrose): 0.02 mg/g
- Cannabinoid quantity in Control R104 ([1]; sucrose): undetectable quantities
- Cannabinoid quantity in Sample R104A ([1]; sucrose): negligible or no detectable quantities
- Cannabinoid quantity in Sample R103A ([1]; sucrose): 0.05 mg/g

SMILES: CCCCCc1cc(O)c(C/C=C(\C)CCC=C(C)C)c(O)c1 [CBG, Cannabigerol]
- Cannabinoid quantity in Sample RB Fat [2]: 0.69 mg/mL
- Cannabinoid quantity, Avg R103A-C ([1]; sucrose): 0.28 mg/g
- Cannabinoid quantity in Control R104 ([1]; sucrose): 0.82 mg/g
- Cannabinoid quantity in Sample S201 [1]: 0.93 mg/g
- Cannabinoid quantity in Sample S103 [1]: 0.58 mg/g
- Cannabinoid quantity in Sample R104A ([1]; sucrose): 1.34 mg/g
- Cannabinoid quantity in (Retest) Sample R104A ([1]; sucrose): 1.29 mg/g
- Cannabinoid quantity in Sample R104B ([1]; sucrose): 1.25 mg/g
- Cannabinoid quantity in Sample R103A ([1]; sucrose): 0.32 mg/g
- Cannabinoid quantity in Sample R103B ([1]; sucrose): 0.26 mg/g
- Change in cannabinoid quantity, Sample S201 compared to Sample S103 [1]: marginal differences

SMILES: CCCCCc1cc2c(c(O)c1C(=O)O)[C@@H]1C=C(C)CC[C@H]1C(C)(C)O2 [THC-A, Tetrahydrocannabinolic acid]
- Cannabinoid quantity in Sample RB Fat [2]: 37.07 mg/mL
- Cannabinoid quantity, Avg R103A-C ([1]; sucrose): 5.46 mg/g
- Cannabinoid quantity in Sample R103A ([1]; sucrose): 7.13 mg/g
- Cannabinoid quantity in Sample R103B ([1]; sucrose): 6.18 mg/g

SMILES: CCCCCc1cc(O)c2c(c1)OC(C)(C)c1ccc(C)cc1-2 [CBN, Cannabinol]
- Cannabinoid quantity in Sample RB Fat [2]: 0.3 mg/mL
- Cannabinoid quantity, Avg R103A-C ([1]; sucrose): 1.03 mg/g
- Cannabinoid quantity in Control R104 ([1]; sucrose): 0.57 mg/g
- Cannabinoid quantity in Sample S201 [1]: 0.79 mg/g
- Cannabinoid quantity in Sample S103 [1]: 2.33 mg/g
- Cannabinoid quantity in Sample R104A ([1]; sucrose): 1.17 mg/g
- Cannabinoid quantity in (Retest) Sample R104A ([1]; sucrose): 1.26 mg/g
- Cannabinoid quantity in Sample R104B ([1]; sucrose): 1.28 mg/g
- Cannabinoid quantity in Sample R103A ([1]; sucrose): 0.93 mg/g
- Cannabinoid quantity in Sample R103B ([1]; sucrose): 1 mg/g
- Change in cannabinoid quantity, Sample S201 compared to Sample S103 [1]: significant reduction

SMILES: CCCCCc1cc(O)c(C/C=C(\C)CCC=C(C)C)c(O)c1C(=O)O [CBG-A, cannabigerolic acid]
- Cannabinoid quantity in Sample RB Fat [2]: 1.22 mg/mL
- Cannabinoid quantity, Avg R103A-C ([1]; sucrose): no quantity of CBG-A was detected
- Cannabinoid quantity in Control R104 ([1]; sucrose): undetectable quantities
- Cannabinoid quantity in Sample R104A ([1]; sucrose): negligible or no detectable quantities

SMILES: CCCCCc1cc(O)c2c(c1)OC(C)(C)[C@@H]1CCC(C)=C[C@@H]21 [Δ9-THC, Δ-9-tetrahydrocannabinol, reference compound]
- Cannabinoid quantity in Sample RB Fat [2]: 12.85 mg/mL
- Cannabinoid quantity, Avg R103A-C ([1]; sucrose): 15.79 mg/g
- Cannabinoid quantity in Control R104 ([1]; sucrose): 35.37 mg/g
- Cannabinoid quantity in Sample S201 [1]: 40.04 mg/g
- Cannabinoid quantity in Sample S103 [1]: 21.93 mg/g and 21.92 mg/g
- Cannabinoid quantity in Sample R104A ([1]; sucrose): 57.13 mg/g
- Cannabinoid quantity in (Retest) Sample R104A ([1]; sucrose): 57.45 mg/g
- Cannabinoid quantity in Sample R104B ([1]; sucrose): 60.42 mg/g
- Cannabinoid quantity in Sample R103A ([1]; sucrose): 15.56 mg/g
- Cannabinoid quantity in Sample R103B ([1]; sucrose): 16.18 mg/g
- Change in cannabinoid quantity, Sample S201 compared to Sample S103 [1]: two-fold increase
- Increase in quantity, Sample R104A compared to the control sample ([1]; sucrose, rapid cooling process vs Control R104): 62%

SMILES: C=C(C)[C@@H]1CCC(C)=C[C@H]1c1c(O)cc(CCCCC)cc1O [CBD, Cannabidiol, reference compound]
- Cannabinoid quantity, Avg R103A-C ([1]; sucrose): No detectable quantities
- Cannabinoid quantity in Control R104 ([1]; sucrose): 0.17 mg/g
- Cannabinoid quantity in Sample S201 [1]: 0.11 mg/g
- Cannabinoid quantity in Sample S103 [1]: 0.22 mg/g
- Cannabinoid quantity in Sample R104A ([1]; sucrose): 0.08 mg/g
- Cannabinoid quantity in (Retest) Sample R104A ([1]; sucrose): 0.15 mg/g
- Cannabinoid quantity in Sample R104B ([1]; sucrose): 0.17 mg/g
- Change in cannabinoid quantity, Sample S201 compared to Sample S103 [1]: marginal differences

Reference: patent publication US9815810B1, “Method of cannabinoid preservation through crystallization and other crystal structures” (Deep Cell […]., priority 2016, dated 2017)
